Data set [1] in a line: Temperature dependence of pH of buffer solutions, ratiometric UV-vis (A418/A623) with indicator 1. In kind it is physicochemical. Particulars: for pH at plateau: plateau 150 K to 90 K; for pH at 298 K: single buffers; for direction of pH change as the solution is equilibrated at lower temperatures: FIG. 4, 50 mM buffer solutions containing 75% glycerol.
The conditions of data set [2]: cited from earlier work; for Effective pH Range: buffer without pK index; for Effective pH Range (pK1): line labelled pK1; for Effective pH Range (pK2): line labelled pK2; for Effective pH Range (pK3): line labelled pK3; for pKa values for the single buffers, second value: Table 5, in parentheses.
The conditions of data set [3]: cited from earlier work.
The conditions of data set [4]: pH-sensitive dye; cited from earlier work.
For data set [5] the following is noted: cited from earlier work. The source holds these as a separate data set.
Data set [6] is described as follows: Freeze-thaw storage stability of oxacillin solutions in various buffers, HPLC. Type of data set: physicochemical.
Setting [7] is: Table 3, change in pH with decreasing temperature, pH 6.1 at 298 K.

Values joined by “and” are separate entries in the source; they are usually repeats but may differ in a detail not shown here. Equal entries are not always repeated. Residues, ends and D or L forms follow the SMILES beside them.

`CC(=O)[O-].[Na+]` [Na-Acetate, sodium acetate]: the pH at plateau in data set [1] (Table 3, pH 5.0 at 298 K) is 5.4. Also, the “pH at 298 K” value in data set [1] (Table 3) is listed as 5.0. Moreover, the ΔpH result in data set [1] (pH 5) was “+0.4”.
`NC(CO)(CO)CO` [Trizma, 2-Amino-2-(hydroxymethyl)-1,3-propanediol]: the “Effective pH Range” value in data set [2] (Table 2) was 7.5–9.0. Also, in data set [1], the “direction of pH change as the solution is equilibrated at lower temperatures” value (“direction of pH change … at lower temperatures” below) was “increases”. Further, the ΔpH entry in data set [1] (Table 3, change in pH with decreasing temperature, pH 7.0 at 298 K) is recorded as “+2.2”. Besides, the pH at plateau in data set [1] (Table 3, pH 7.0 at 298 K) amounted to 9.2. In addition, in data set [1] (Table 3), the “pH at 298 K” value is 7.0.
Turning to `O=C(O)O` [carbonate], in data set [2] (Table 2), the “Effective pH Range (pK1)” value is recorded as 6.0–8.0 and the “Effective pH Range (pK2)” value is reported as 9.5–11.1.
Turning to `O=P(O)(O)O` [KPhosphate, potassium phosphate], the “ΔpH over a 208 K range” value in data set [1] (298 K to 90 K, 50 mM buffer, pH 7.0) was −0.50. For the same compound, the “direction of pH change … at lower temperatures” value in data set [1] is listed as “decreases”. The pH at plateau in data set [1] (Table 3, pH 7.0 at 298 K) came to 6.5; in data set [1] (Table 3, pH 8.0 at 298 K), 7.3. Further, in data set [1] (Table 3), the “pH at 298 K” value is 8.0 and 7.0. Besides, the ΔpH in data set [1] (pH 7) is recorded as −0.5; in data set [1] (pH 8), −0.7. In addition, the pH change in data set [1] (starting from pH 8.0, indicator 1) is ~−0.7 units.
Consider phosphate, for which, in data set [2] (Table 2), the “Effective pH Range (pK1)” value was 1.7–2.9, the “Effective pH Range (pK2)” value is reported as 5.8–8.0 and the “Effective pH Range (pK3)” value was 11.5–13.0.
For the compound `CC(C)(N)CO` [AMP, 2-amino-2-methyl-1-propanol], in data set [2] (Table 2), the “Effective pH Range” value is on record as 8.7–10.4.
With `c1c[nH]cn1` [imidazole], the “Effective pH Range” value in data set [2] (Table 2) is listed as 6.2–7.8.
As to `OCC(CO)(CO)NCCCNC(CO)(CO)CO` [BIS-TRIS propane, 1,3-bis[tris(hydroxymethyl)methylamino]propane], the “Effective pH Range” value in data set [2] (Table 2) is listed as 6.3–9.5. In addition, the pKa (usually the negative logarithm of the acid dissociation constant) at 25° C., pK2 in data set [2] (Table 2, pK2 or second value printed in the cell) is 9.00. The “pKa values for the single buffers, second value” in data set [2] is recorded as 9.0. In data set [1] (setting [7]), the ΔpH entry is recorded as “+2.1”. In data set [1] (Table 3, pH 6.1 at 298 K), this compound had a pH at plateau of 8.2. The “pH at 298 K” value in data set [1] (Table 3) amounted to 6.1.
Turning to `O=S(=O)(O)CC(O)CN1CCN(CC(O)CS(=O)(=O)O)CC1` (centres unmarked) [POPSO], the “Effective pH Range” value in data set [2] (Table 2) was 7.2–8.5.
Regarding `N` [ammonium hydroxide], the “Effective pH Range” value in data set [2] (Table 2) was 8.8–9.9.
With `O=S(=O)(O)CCN1CCOCC1` [MES, 2-morpholinoethanesulfonic acid], the ΔpH entry in data set [1] (Table 3, change in pH with decreasing temperature, pH 6.0 at 298 K) is listed as “+1.4”. In data set [1] (Table 3, pH 6.0 at 298 K), this compound registered a pH at plateau of 7.4. In addition, in data set [1] (Table 3), the “pH at 298 K” value stood at 6.0.
`O=S(=O)(O)CCCN1CCOCC1` [MOPS, 3-N-morpholino propansulfonic acid]: in data set [2] (Table 2), the “Effective pH Range” value was 6.5–7.9. The “direction of pH change … at lower temperatures” value in data set [1] was “increases”. Besides, in data set [1] (setting [7]), the ΔpH entry was “+1.6”. The pH at plateau in data set [1] (Table 3, pH 6.1 at 298 K) amounted to 7.7. In data set [1] (Table 3), the “pH at 298 K” value stood at 6.1. The “increase of pH upon lowering the temperature” value in data set [1] (room temperature to ~170 K, 50 mM, 75% glycerol) is on record as “about 1.6 pH unit”. Moreover, the “degree of pH change with temperature, 50% glycerol versus 75% glycerol” value in data set [1] (sample containing 50% glycerol, FIG. 6) is “somewhat larger”.
Regarding `O=C(O)CC(O)C(=O)O` (centres unmarked) [malate], in data set [2] (Table 2), the “Effective pH Range (pK1)” value is 2.7–4.2 and the “Effective pH Range (pK2)” value is 4.0–6.0.
As to `COc1cccc2c1C(=O)c1c(O)c3c(c(O)c1C2=O)C[C@@](O)(C(=O)CO)C[C@@H]3O[C@H]1C[C@H](N)[C@H](O)[C@H](C)O1` [doxorubicin], in data set [3] (freeze (−20° C.)-thaw (+37° C.), correlates with hydrolysis of the aminoglycoside bond), the “therapeutic activity upon repeated freeze-thaw treatments” value is “gradually reduces therapeutic activity”. The “optimum pH for storage stable, ready-to-use formulations” value in data set [3] (storage at 4-8° C.) is given as 3.0.
As to `CC(N)(CO)CO` [AMPD, 2-amino-2-methyl-1,3-propanediol], the “Effective pH Range” value in data set [2] (Table 2) is 7.8–9.7.
For `O=P(O)(O)OP(=O)(O)O` [pyrophosphate], the “Effective pH Range” value in data set [2] (Table 2) is given as 7.0–9.0.
`CC(=O)O` [acetate]: in data set [1], the “direction of pH change … at lower temperatures” value was “increases”.
In the case of `O=S(=O)(O)CC(O)CN(CCO)CCO` (centres unmarked) [DIPSO], the “Effective pH Range” value in data set [2] (Table 2) is on record as 7.0–8.2.
Consider `O=S(=O)(O)CCNC1CCCCC1` [CHES], for which the “Effective pH Range” value in data set [2] (Table 2) is listed as 8.6–10.0.
`O=S(=O)(O)CCCCNC(CO)(CO)CO` [TABS]: the “Effective pH Range” value in data set [2] (Table 2) is reported as 8.2–9.6.
As to `O=S(=O)(O)CC(O)CNC1CCCCC1` (centres unmarked) [CAPSO], the “Effective pH Range” value in data set [2] (Table 2) is 8.9–10.3.
As to `Cc1c(C2(c3cc(Br)c(O)c(Br)c3C)OS(=O)(=O)c3ccccc32)cc(Br)c(O)c1Br` [Bromocresol green], the pKa in data set [4] is 4.6.
As for `NCC(=O)NCC(=O)O` [glycylglycine] (H-Gly-Gly-OH), in data set [2] (Table 2), the “Effective pH Range (pK1)” value was 2.5–3.8 and the “Effective pH Range (pK2)” value is reported as 7.5–8.9. For the same compound, the “pKa at 25° C., pK1” value in data set [2] (Table 2, pK1 or first value printed in the cell) was 3.14.
As to `O=S(=O)(O)CCCNC(CO)(CO)CO` [TAPS], the “Effective pH Range” value in data set [2] (Table 2) is given as 7.7–9.1.
With `CC(C)(CO)NCC(O)CS(=O)(=O)O` (centres unmarked) [AMPSO], the “Effective pH Range” value in data set [2] (Table 2) is on record as 8.3–9.7.
With `O=C(O)CC(O)(CC(=O)O)C(=O)O` [citrate], in data set [2] (Table 2), the “Effective pH Range (pK1)” value is 2.2–6.5, the “Effective pH Range (pK2)” value is listed as 3.0–6.2 and the “Effective pH Range (pK3)” value is on record as 5.5–7.2.
For “thrombin-activated porcine factor VIII: thrombin-activated porcine factor VIII, heterotrimeric coagulation protein”, the “coagulation activity between pH 7 and 8” value in data set [5] (between pH 7 and 8) is “sharp decline”. In addition, the “state of the protein at pH 6.0” value in data set [5] (pH 6.0 at 4° C. or 20° C.) is “stable, active, heterotrimer”.
Regarding `O=S(=O)(O)CCCNC1CCCCC1` [CAPS], the “Effective pH Range” value in data set [2] (Table 2) is 9.7–11.1.
In the case of `O=S(=O)(O)CCCCN1CCN(CCO)CC1` [HEPBS], the “Effective pH Range” value in data set [2] (Table 2) was 7.6–9.0.
Regarding `O=S(=O)(O)CC(O)CNC(CO)(CO)CO` (centres unmarked) [TAPSO], the “Effective pH Range” value in data set [2] (Table 2) is 7.0–8.2.
In the case of `O=S(=O)(O)CCN1CCN(CCS(=O)(=O)O)CC1` [PIPES], the “Effective pH Range” value in data set [2] (Table 2) is 6.1–7.5.
For the compound `O=C(O)C(O)C(O)C(=O)O` (centres unmarked) [Tartrate], in data set [2], the “pKa values for the single buffers, second value” is on record as “(3.00, 4.40)^1”.
For the compound `NC(=O)CNCCS(=O)(=O)O` [ACES], the “Effective pH Range” value in data set [2] (Table 2) is listed as 6.1–7.5.
Turning to `C1CNCCN1` [piperazine], in data set [2] (Table 2), the “Effective pH Range (pK1)” value is recorded as 5.0–6.0 and the “Effective pH Range (pK2)” value is given as 9.5–9.8.
As to `Cc1onc(-c2ccccc2)c1C(=O)N[C@@H]1C(=O)N2[C@@H]1SC(C)(C)[C@@H]2C(=O)O` [oxacillin], the “hydrolysis of the antibiotic on storage, versus HEPES:KPhosphate (60:40) buffered solution” value in data set [6] (200 μM in 50 mM BisTris Propane buffer pH 7.0, 193 K, freeze-thaw over eight days) is “greater hydrolysis”. In addition, the “pH-induced hydrolysis under freeze-thaw storage conditions” value in data set [6] (200 μM in 50 mM HEPES:KPhosphate (60:40) pH 7.0, 193 K, eight days) is listed as “reduced”.
On to `O=S(=O)(O)CCCCNC1CCCCC1` [CABS], for which the “Effective pH Range” value in data set [2] (Table 2) is recorded as 10.0–11.4.
Regarding `O=C(O)CNC(CO)(CO)CO` [tricine], the “Effective pH Range” value in data set [2] (Table 2) is listed as 7.4–8.8.
Consider `NCC(=O)O` [glycine], for which, in data set [2] (Table 2), the “Effective pH Range (pK1)” value is 2.2–3.6 and the “Effective pH Range (pK2)” value is recorded as 8.8–10.6.

Source of the values: patent publication US8183046B2, “Temperature resistant pH buffers for use at low temperatures” (The Board of Trustees of the University of Illinois, priority 2007, dated 2012).
